≈ marks a conversion by molar mass, not a printed value. Calls of active or inactive are those of the source. No cut-off for these calls is given here.
How the values were obtained:
Staphylococcus aureus [1] = assay: Ratio of antibacterial activity against Staphylococcus aureus ATCC 25923 in presence of NaCl to antibacterial activity against Staphylococcus aureus ATCC 25923; type: functional
Escherichia coli [2] = assay: Antimicrobial activity against Escherichia coli ATCC 25922 at 1 mM preincubated for 6 hrs in presence of 2000 ug/ml trypsin and measured after 18 hrs by microplate reader analysis; type: functional, organism-based
Pseudomonas aeruginosa [3] = assay: Antibacterial activity against Pseudomonas aeruginosa ATCC 27853 after 18 hrs by CLSI based broth microdilution method; type: functional; settings: ATCC 27853, 18 h
Escherichia coli [4] = assay: Ratio of antibacterial activity against Escherichia coli ATCC 25922 in presence of MgCl2 to antibacterial activity against Escherichia coli ATCC 25922; type: functional
Escherichia coli [5] = assay: Induction of membrane disruption in Escherichia coli ATCC 25922 assessed as rough membrane surface at 4 times of MIC after 2 hrs by SEM analysis; type: functional, organism-based
Escherichia coli [6] = assay: Ratio of antibacterial activity against Escherichia coli ATCC 25922 in presence of FeCl3 to antibacterial activity against Escherichia coli ATCC 25922; type: functional
Klebsiella pneumoniae [7] = assay: Potentiation of polymyxin B-induced antibacterial activity against Klebsiella pneumoniae ATCC 700603 assessed as FICI after 18 hrs by checker board assay; type: functional
Pseudomonas aeruginosa [8] = assay: Antibiofilm activity against Pseudomonas aeruginosa ATCC 27853 after 24 hrs by crystal violet staining based assay; type: functional, organism-based
Escherichia coli [9] = assay: Disruption of membrane integrity in Escherichia coli ATCC 25922 assessed as membrane damage by measuring PI fluorescence at 4 times of MIC incubated for 1 hr by PI dye based flow cytometric analysis (reference value: 1.35%); type: functional
Pseudomonas aeruginosa [10] = assay: Potentiation of rifampicin-induced antibacterial activity against Pseudomonas aeruginosa ATCC 27853 assessed as FICI after 18 hrs by checker board assay; type: functional
Escherichia coli [11] = assay: Antimicrobial activity against Escherichia coli ATCC 25922 at 1 mM preincubated for 6 hrs in presence of 2 ug/ml chymotrypsin and measured after 18 hrs by microplate reader analysis; type: functional, organism-based
DNA = assay: Binding affinity to Escherichia coli ATCC 25922 genomic DNA after 30 mins by agarose gel electrophoresis; type: nucleic-acid assay
Escherichia coli [12] = assay: Induction of membrane disruption in Escherichia coli ATCC 25922 assessed as degeneration in membrane at 4 times of MIC after 2 hrs by SEM analysis; type: functional, organism-based
Klebsiella pneumoniae [13] = assay: Potentiation of rifampicin-induced antibacterial activity against Klebsiella pneumoniae ATCC 700603 assessed as FICI after 18 hrs by checker board assay; type: functional
Escherichia coli [14] = assay: Ratio of MIC for Escherichia coli ATCC 25922 preincubated for 1 hr in presence of 10% mouse serum and measured after 18 hrs to MIC for antibacterial activity against Escherichia coli ATCC 25922 after 18 hrs; type: functional
Staphylococcus aureus [15] = assay: Ratio of antibacterial activity against Staphylococcus aureus ATCC 25923 in presence of KCl to antibacterial activity against Staphylococcus aureus ATCC 25923; type: functional
Escherichia coli [16] = assay: Potentiation of rifampicin-induced antibacterial activity against Escherichia coli ATCC 25922 assessed as FICI after 18 hrs by checker board assay; type: functional
Escherichia coli [17] = assay: Disruption of membrane integrity in Escherichia coli ATCC 25922 assessed as membrane damage by measuring PI fluorescence at 2 times of MIC incubated for 1 hr by PI dye based flow cytometric analysis (reference value: 1.35%); type: functional
Escherichia coli [18] = assay: Antibacterial activity against Escherichia coli ATCC 25922 after 18 hrs by CLSI based broth microdilution method; type: functional; settings: ATCC 25922, 18 h
Staphylococcus aureus [19] = assay: Antibacterial activity against Staphylococcus aureus ATCC 25923 after 18 hrs by CLSI based broth microdilution method; type: functional; settings: ATCC 25923, 18 h
Escherichia coli [20] = assay: Ratio of antibacterial activity against Escherichia coli ATCC 25922 in presence of NaCl to antibacterial activity against Escherichia coli ATCC 25922; type: functional
Klebsiella pneumoniae [21] = assay: Antibacterial activity against Klebsiella pneumoniae ATCC 700603 after 18 hrs by CLSI based broth microdilution method; type: functional; settings: Klebsiella pneumoniae, 700603, 18 h
Erythrocyte = assay: Hemolytic activity in human RBC measured after 1 hr by microplate reader analysis; type: ADME, cell-based
Pseudomonas aeruginosa [22] = assay: Potentiation of polymyxin B-induced antibacterial activity against Pseudomonas aeruginosa ATCC 27853 assessed as FICI after 18 hrs by checker board assay; type: functional
Staphylococcus aureus [23] = assay: Antibiofilm activity against Staphylococcus aureus ATCC 25923 after 24 hrs by crystal violet staining based assay; type: functional, organism-based
Escherichia coli [24] = assay: Antibiofilm activity against Escherichia coli ATCC 25922 after 24 hrs by crystal violet staining based assay; type: functional, organism-based
[25] = Selectivity index, ratio of MHC10 for human RBC to geometric mean of peptide MIC for gram positive bacteria; type: toxicity; settings: human red blood cells, read-out: Selectivity Index
Escherichia coli [26] = assay: Antibacterial activity against Escherichia coli ATCC 43837 after 18 hrs by CLSI based broth microdilution method; type: functional; settings: ATCC 43837, 18 h
Escherichia coli [27] = assay: Induction of membrane disruption in Escherichia coli ATCC 25922 assessed as corrugated membrane surface at 4 times of MIC after 2 hrs by SEM analysis; type: functional, organism-based
Escherichia coli [28] = assay: Ratio of antibacterial activity against Escherichia coli ATCC 25922 in presence of KCl to antibacterial activity against Escherichia coli ATCC 25922; type: functional
Escherichia coli [29] = assay: Induction of inner membrane permeabilization in Escherichia coli ATCC 43837 assessed as increase in ONPG release at 4 times of MIC by ONPG dye based assay; type: organism-based
Escherichia coli [30] = assay: Induction of inner membrane permeabilization in Escherichia coli ATCC 43837 assessed as increase in ONPG release at 1 to 2 times of MIC by ONPG dye based assay; type: organism-based
Escherichia coli [31] = assay: Induction of outer membrane permeabilization in Escherichia coli ATCC 25922 measured up to 12 mins by NPN-dye based assay; type: organism-based
Staphylococcus aureus [32] = assay: Ratio of antibacterial activity against Staphylococcus aureus ATCC 25923 in presence of FeCl3 to antibacterial activity against Staphylococcus aureus ATCC 25923; type: functional
[33] = Selectivity index, ratio of MHC10 for human RBC to geometric mean of peptide MIC for gram negative bacteria; type: toxicity; settings: human red blood cells, read-out: Selectivity Index
Escherichia coli [34] = assay: Antibacterial activity against Escherichia coli ATCC 25922 at 0.5 times MIC incubated for 18 hrs measured for 15 passages by CLSI based broth microdilution method; type: functional, organism-based
Escherichia coli [35] = assay: Induction of membrane disruption in Escherichia coli ATCC 25922 assessed as fracture in membrane at 4 times of MIC after 2 hrs by SEM analysis; type: functional, organism-based
Staphylococcus aureus [36] = assay: Antibacterial activity against methicillin-resistant Staphylococcus aureus 936 after 18 hrs by CLSI based broth microdilution method; type: functional; settings: Staphylococcus aureus, 936, 18 h
Pseudomonas aeruginosa [37] = assay: Antibiofilm activity against Pseudomonas aeruginosa ATCC 27853 at 0.25 to 2 times of MIC after 24 hrs by crystal violet staining based assay; type: functional, organism-based
Escherichia coli [38] = assay: Potentiation of polymyxin B-induced antibacterial activity against Escherichia coli ATCC 25922 assessed as FICI after 18 hrs by checker board assay; type: functional

For `CCCCCCCC(=O)NC(Cc1cn(CCCC[C@H](NC(C)=O)C(=O)NCC(=O)N[C@@H](CC(C)C)C(=O)N[C@@H](CC(C)C)C(=O)N[C@H](CCCCN)C(=O)N[C@@H](CCCNC(=N)N)C(=O)N[C@H](C(=O)N[C@H](CCCCN)C(=O)N[C@H](C(=O)N[C@@H](CC(C)C)C(=O)N[C@@H](CC(C)C)C(N)=O)[C@@H](C)O)[C@@H](C)CC)nn1)C(=O)NCC(=O)N[C@@H](CC(C)C)C(=O)N[C@@H](CC(C)C)C(=O)N[C@H](CCCCN)C(=O)N[C@@H](CCCNC(=N)N)C(=O)N[C@H](C(=O)N[C@H](CCCCN)C(=O)N[C@H](C(=O)N[C@@H](CC(C)C)C(=O)N[C@@H](CC(C)C)C(N)=O)[C@@H](C)O)[C@@H](C)CC` (stereo not given in full), the Ratio (Staphylococcus aureus [1]) was 2 - 4, the Activity (Escherichia coli [2]) was “Active” and the MIC (Pseudomonas aeruginosa [3]) was 8 µM (≈ 21.8 µg/mL). For the same compound, the Ratio (Escherichia coli [4]) was 2 - 4, the Activity (Escherichia coli [5]) was “Active” and the Ratio (Escherichia coli [6]) was 2 - 4. The “fractional inhibitory concentration index (FICI)” value (Klebsiella pneumoniae [7]) was 0.3125, the inhibition (Pseudomonas aeruginosa [8]) was “Dose-dependent effect” and the Activity (Escherichia coli [9]) was 32.1%. The “fractional inhibitory concentration index (FICI)” value (Pseudomonas aeruginosa [10]) was 0.5625, the Activity (Escherichia coli [11]) was “Active” and the Activity (DNA) was “Dose-dependent effect”. The Activity (Escherichia coli [12]) was “Active”, the “fractional inhibitory concentration index (FICI)” value (Klebsiella pneumoniae [13]) was 0.5625 and the Ratio (Escherichia coli [14]) was 2. The Ratio (Staphylococcus aureus [15]) was 2 - 4, the “fractional inhibitory concentration index (FICI)” value (Escherichia coli [16]) was 0.5625 and the Activity (Escherichia coli [17]) was 13.4%. The MIC (Escherichia coli [18]) was 4 µM (≈ 10.9 µg/mL), the MIC (Staphylococcus aureus [19]) was 16 µM (≈ 43.6 µg/mL) and the Ratio (Escherichia coli [20]) was 2 - 4. The MIC (Klebsiella pneumoniae [21]) was 16 µM (≈ 43.6 µg/mL), the MHC10 (Erythrocyte) was 128 µM and the “fractional inhibitory concentration index (FICI)” value (Pseudomonas aeruginosa [22]) was 0.5625. For the same compound, the inhibition (Staphylococcus aureus [23]) was “Dose-dependent effect”, the inhibition (Escherichia coli [24]) was “Dose-dependent effect” and the selectivity ratio [25] was 11.3. For the same compound, the MIC (Escherichia coli [26]) was 8 µM (≈ 21.8 µg/mL), the Activity (Escherichia coli [27]) was “Active” and the Ratio (Escherichia coli [28]) was 2 - 4. For the same compound, the Activity (Escherichia coli [29]) was “Active”, the Activity (Escherichia coli [30]) was “Active” and the Activity (Escherichia coli [31]) was “Dose-dependent effect”. For the same compound, the Ratio (Staphylococcus aureus [32]) was 2 - 4, the selectivity ratio [33] was 14.2 and the Activity (Escherichia coli [34]) was “Active”. The Activity (Escherichia coli [35]) was “Active”, the MIC (Staphylococcus aureus [36]) was 16 µM (≈ 43.6 µg/mL) and the inhibition (Pseudomonas aeruginosa [37]) was “Active”. The “fractional inhibitory concentration index (FICI)” value (Escherichia coli [38]) was 0.3125.

From ChEMBL document CHEMBL4359906, “Design and synthesis of new N-terminal fatty acid modified-antimicrobial peptide analogues with potent in vitro biological activity” (Eur J Med Chem, 2019)
